These results are taken from US7345070B2, “Peroxisome proliferator activated receptor agonists” (Eli Lilly and Company, priority 2000, dated 2008).

The subject of this experiment is db/db mice. Nature of the experiment: Evaluation of glucose levels in db/db mice. The experiment is classed as in vivo. As to conditions: Mus musculus, 168 h, 30 mg/kg oral gavage daily for 7 days, 100% = glucose not different from lean values, read-out: Glucose Normalisation. How it is done:
Five week old male diabetic (db/db) mice [C57BlKs/j-m+/+ Lepr(db), Jackson Laboratory, Bar Harbor, Me.] or lean littermates (db+) were housed 6 per cage (10″×20″×8″ with aspen chip bedding) with food (Purina 5015) and water available at all times. After an acclimation period of 2 weeks, animals were individually identified by ear notches, weighed, and bled via the tail vein for determination of initial glucose levels. Blood was collected (100 μl) from unfasted animals by wrapping each mouse in a towel, cutting the tip of the tail with a scalpel, and milking blood from the tail into a heparinized capillary tube (Fisher) balanced on the edge of the bench. Sample was discharged into a heparinized microtainer with gel separator (VWR) and retained on ice. Plasma was obtained after centrifugation at 4° C. and glucose measured immediately. Remaining plasma was frozen until the completion of the experiment, when glucose and triglycerides were assayed in all samples. Animals were grouped based on initial glucose levels and body weights. Beginning the following morning, mice were dosed daily by oral gavage for 7 days using a 20 gauge, 1½″ curved disposable feeding needle. Treatments were test compounds (30 mg/kg), a positive control agent (30 mg/kg) or vehicle [1% carboxymethylcellulose (w/v)/0.25% Tween80 (w/v); 0.3 ml/mouse]. On day 7, mice were weighed and bled (tail vein) 3 hours after dosing. Twenty-four hours after the 7th dose (i.e., day 8), animals were bled again (tail vein). Samples obtained from conscious animals on days 0, 7 and 8 were assayed for glucose. After the 24 hour bleed, animals were weighed and dosed for the final time. Three hours after dosing on day 8, animals were anesthetized by inhalation of isoflurane and blood obtained via cardiac puncture (0.5-0.7 ml). Whole blood was transferred to serum separator tubes, chilled on ice and permitted to clot. Serum was obtained after centrifugation at 4° C. and frozen until analysis for compound levels. After sacrifice by cervical dislocation, the liver, heart and epididymal fat pads were excised and weighed.
The animals dosed with vehicle had average triglycerides values of 170-230 mg/dl, which were reduced by the positive PPARγ control (70-120 mg/dl with a mean reduction of 50%). Male db/db mice were hyperglycemic (average glucose of 680-730 mg/dl on the 7th day of treatment), while lean animals had average glucose levels between 190-230 mg/dl.
Glucose was measured […] using commercially purchased reagents (Sigma #315-500). According to the manufacturers, the procedures were modified from published work (McGowan, M. W., Artiss, J. D., Strandbergh, D. R. & Zak, B. Clin Chem, 20:470-5 (1974) and Keston, A. Specific colorimetric enzymatic analytical reagents for glucose. Abstract of papers 129th Meeting ACS, 31C (1956).); and depend on the release of a mole of hydrogen peroxide for each mole of analyte, coupled with a color reaction first described by Trinder (Trinder, P. Determination of glucose in blood using glucose oxidase with an alternative oxygen acceptor. Ann Clin Biochem, 6:24 (1969)). The absorbance of the dye produced is linearly related to the analyte in the sample. The assays were further modified in our laboratory for use in a 96 well format. Standards (Sigma #339-11, Sigma #16-11, and Sigma #CC0534 for glucose, triglycerides and total cholesterol, respectively), quality control plasma (Sigma # A2034), and samples (2 or 5 μl/well) were measured in duplicate using 200 μl of reagent. An additional aliquot of sample, pipetted to a third well and diluted in 200 μl water, provided a blank for each specimen. Plates were incubated at room temperature (18, 15, and 10 minutes for glucose, triglycerides and total cholesterol, respectively) on a plate shaker (DPC Micormix 5) and absorbance read at 500 nm (glucose and total cholesterol) or 540 nm (triglycerides) on a plate reader (Wallac Victor 1420). […]

As for `Cc1oc(-c2cccs2)nc1CCOc1ccc(CC(C)(Oc2cccc(C(F)(F)F)c2)C(=O)O)cc1` (stereo not drawn) [Example 71, 2-Methyl-3-{4-[2-(5-methyl-2-thiophen-2-yl-oxazol-4-yl)-ethoxy]-phenyl}-2-(3-trifluoromethyl-phenoxy)-propionic acid], the inhibition in vivo at 30 mg/kg was 97%.
Then `COc1cccc(OC(C)(Cc2ccc(OCCc3nc(C4CCCCC4)oc3C)cc2)C(=O)O)c1` (stereo not drawn) [Example 76, 3-{4-[2-(2-Cyclohexyl-5-methyl-oxazol-4-yl)-ethoxy]-phenyl}-2-(3-methoxy-phenoxy)-2-methyl-propionic acid], with 97%; and `Cc1oc(-c2ccccc2)nc1CCOc1ccc(CC(C)(Oc2ccc3c(c2)OCO3)C(=O)O)cc1` (stereo not drawn) [Example 78, 2-(Benzo[1,3]dioxol-5-yloxy)-2-methyl-3-{4-[2-(5-methyl-2-phenyl-oxazol-4-yl)-ethoxy]-phenyl}-propionic acid], with 86%.
As for `Cc1oc(C2CCCCC2)nc1CCOc1ccc(CC(C)(Oc2ccc3c(c2)OCO3)C(=O)O)cc1` (stereo not drawn) [Example 80, 2-(Benzo[1,3]dioxol-5-yloxy)-3-{4-[2-(2-cyclohexyl-5-methyl-oxazol-4-yl)-ethoxy]-phenyl}-2-methyl-propionic acid], the inhibition in vivo at 30 mg/kg is 83%.
As for `Cc1oc(CCc2ccccc2)nc1CCOc1ccc(C[C@](C)(Oc2ccccc2)C(=O)O)cc1` [Example 86, (S)-2-Methyl-3-{4-[2-(5-methyl-2-phenethyl-oxazol-4-yl)-ethoxy]-phenyl}-2-phenoxy-propionic acid], the inhibition in vivo at 30 mg/kg stood at 92%.
Then `Cc1oc(-c2ccccc2)nc1CCCc1ccc(CC(C)(Oc2ccccc2)C(=O)O)s1` (stereo not drawn) [Example 91, 2-Methyl-3-{5-[3-(5-methyl-2-phenyl-oxazol-4-yl)-propyl]-thiophen-2-yl}-2-phenoxy-propionic acid], with 71%.
